From US9051270B2, “Pyridone amides as modulators of sodium channels” (Vertex Pharmaceuticals Incorporated, priority 2013, dated 2015)

Molecular target: human Nav1.8 (Homo sapiens (Human), UniProt Q9Y5Y9)
Test: E-VIPR optical membrane potential assay with electrical stimulation
Assay type: cell-based
Conditions: HEK cells expressing human Nav1.8

human Nav1.8, sequence (Q9Y5Y9 whole entry): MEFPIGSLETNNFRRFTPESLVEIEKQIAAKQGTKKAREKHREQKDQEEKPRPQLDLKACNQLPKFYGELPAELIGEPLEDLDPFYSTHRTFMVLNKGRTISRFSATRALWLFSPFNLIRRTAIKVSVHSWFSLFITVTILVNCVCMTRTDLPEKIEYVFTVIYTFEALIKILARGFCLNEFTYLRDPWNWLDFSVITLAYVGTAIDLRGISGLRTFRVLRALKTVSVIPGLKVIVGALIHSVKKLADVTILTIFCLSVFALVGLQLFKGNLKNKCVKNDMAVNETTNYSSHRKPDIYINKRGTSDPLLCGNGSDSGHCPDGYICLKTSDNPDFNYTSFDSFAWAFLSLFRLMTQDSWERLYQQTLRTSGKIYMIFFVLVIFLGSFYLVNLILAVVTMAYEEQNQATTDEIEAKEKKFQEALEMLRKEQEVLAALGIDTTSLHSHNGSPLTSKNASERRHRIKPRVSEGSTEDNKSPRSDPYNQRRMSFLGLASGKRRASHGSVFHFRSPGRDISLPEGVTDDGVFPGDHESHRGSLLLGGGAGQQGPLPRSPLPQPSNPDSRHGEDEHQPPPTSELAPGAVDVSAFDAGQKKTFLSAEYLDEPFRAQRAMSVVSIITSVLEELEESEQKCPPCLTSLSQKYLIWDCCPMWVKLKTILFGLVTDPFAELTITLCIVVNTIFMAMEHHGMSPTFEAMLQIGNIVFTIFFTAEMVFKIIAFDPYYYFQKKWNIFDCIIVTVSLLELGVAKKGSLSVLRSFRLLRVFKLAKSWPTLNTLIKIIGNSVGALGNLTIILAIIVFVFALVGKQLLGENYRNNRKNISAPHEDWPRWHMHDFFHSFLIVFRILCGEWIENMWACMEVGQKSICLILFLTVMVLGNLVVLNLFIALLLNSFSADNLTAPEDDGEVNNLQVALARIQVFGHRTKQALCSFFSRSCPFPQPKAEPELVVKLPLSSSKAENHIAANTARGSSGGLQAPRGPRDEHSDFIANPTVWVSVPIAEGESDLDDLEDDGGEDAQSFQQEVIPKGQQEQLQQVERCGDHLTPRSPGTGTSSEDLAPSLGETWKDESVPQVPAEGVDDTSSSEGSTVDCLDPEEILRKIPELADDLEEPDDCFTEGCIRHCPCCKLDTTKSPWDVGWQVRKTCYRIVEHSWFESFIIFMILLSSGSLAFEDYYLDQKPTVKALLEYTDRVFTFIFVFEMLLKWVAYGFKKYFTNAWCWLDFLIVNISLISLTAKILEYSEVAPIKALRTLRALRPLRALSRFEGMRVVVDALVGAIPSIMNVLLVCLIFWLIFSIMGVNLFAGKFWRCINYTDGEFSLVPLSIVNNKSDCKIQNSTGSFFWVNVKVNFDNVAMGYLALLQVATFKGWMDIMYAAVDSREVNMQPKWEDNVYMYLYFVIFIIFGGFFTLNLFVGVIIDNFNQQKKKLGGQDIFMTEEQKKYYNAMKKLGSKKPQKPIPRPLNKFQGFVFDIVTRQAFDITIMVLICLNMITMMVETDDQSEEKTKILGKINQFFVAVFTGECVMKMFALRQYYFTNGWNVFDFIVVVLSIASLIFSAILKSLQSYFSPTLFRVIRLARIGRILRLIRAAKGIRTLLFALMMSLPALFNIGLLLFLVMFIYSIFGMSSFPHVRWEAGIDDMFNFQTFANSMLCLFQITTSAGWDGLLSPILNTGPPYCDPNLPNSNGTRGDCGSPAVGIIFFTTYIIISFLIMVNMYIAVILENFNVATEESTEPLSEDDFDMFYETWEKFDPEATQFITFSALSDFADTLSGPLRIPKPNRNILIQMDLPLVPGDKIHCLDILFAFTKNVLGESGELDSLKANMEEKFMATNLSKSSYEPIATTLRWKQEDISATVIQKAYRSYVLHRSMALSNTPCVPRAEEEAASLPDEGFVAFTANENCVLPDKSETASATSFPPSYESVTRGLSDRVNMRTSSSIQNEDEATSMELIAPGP

Compound: Cn1ccc(NC(=O)c2ccc(C(C)(C)C)cc2Oc2ccc(C(F)(F)F)nc2)cc1=O [Compound 148, 4-(tert-butyl)-N-(1-methyl-2-oxo-1,2-dihydropyridin-4-yl)-2-((6-(trifluoromethyl)pyridin-3-yl)oxy)benzamide]
- IC50: 450 nM

Compound: N#Cc1ccc(Oc2ccc(C(F)(F)F)cc2C(=O)Nc2cc[nH]c(=O)c2)cc1 [Compound 25, 2-(4-cyanophenoxy)-N-(2-oxo-1,2-dihydropyridin-4-yl)-5-(trifluoromethyl)benzamide]
- IC50: 1100 nM

Compound: CC(C)Oc1ccccc1Oc1ccc(C(F)(F)F)cc1C(=O)Nc1cc[nH]c(=O)c1 [Compound 64, 2-(2-isopropoxyphenoxy)-N-(2-oxo-1,2-dihydropyridin-4-yl)-5-(trifluoromethyl)benzamide]
- IC50: 108 nM

Compound: O=C(Nc1ccc(=O)[nH]c1)c1cc(C(F)(F)F)ccc1Oc1ccc(F)cc1 [Compound 4, 2-(4-fluorophenoxy)-N-(6-oxo-1,6-dihydropyridin-3-yl)-5-(trifluoromethyl)benzamide]
- IC50: 350 nM

Compound: O=C(Nc1cc[nH]c(=O)c1)c1cc(F)ccc1Oc1ccc(OCC(F)(F)F)cc1 [Compound 107, 5-fluoro-N-(2-oxo-1,2-dihydropyridin-4-yl)-2-(4-(2,2,2-trifluoroethoxy)phenoxy)benzamide]
- IC50: 390 nM

Compound: Cc1cc(F)ccc1Oc1cc(C#N)ccc1C(=O)Nc1cc[nH]c(=O)c1 [Compound 23, 4-cyano-2-(4-fluoro-2-methylphenoxy)-N-(2-oxo-1,2-dihydropyridin-4-yl)benzamide]
- IC50: 1500 nM

Compound: Cc1ncccc1Oc1ccc(C(F)(F)F)cc1C(=O)Nc1cc[nH]c(=O)c1 [Compound 150, 2-((2-methylpyridin-3-yl)oxy)-N-(2-oxo-1,2-dihydropyridin-4-yl)-5-(trifluoromethyl)benzamide]
- IC50: 6600 nM

Compound: Cc1cc(NC(=O)c2cc(C(F)(F)F)ccc2Oc2ccc(F)cc2C)cc(=O)[nH]1 [Compound 61, 2-(4-fluoro-2-methylphenoxy)-N-(6-methyl-2-oxo-1,2-dihydropyridin-4-yl)-5-(trifluoromethyl)benzamide]
- IC50: 113 nM

Compound: O=C(Nc1cc[nH]c(=O)c1)c1ccc(C(F)(F)F)cc1Oc1ccc(F)cc1 [Compound 5, 2-(4-fluorophenoxy)-N-(2-oxo-1,2-dihydropyridin-4-yl)-4-(trifluoromethyl)benzamide]
- IC50: 39 nM

Compound: COc1ccc(Oc2cc(C(F)(F)C(F)(F)F)ccc2C(=O)Nc2cc[nH]c(=O)c2)cc1F [Compound 89, 2-(3-fluoro-4-methoxyphenoxy)-N-(2-oxo-1,2-dihydropyridin-4-yl)-4-(perfluoroethyl)benzamide]
- IC50: 16 nM

Compound: O=C(Nc1cc[nH]c(=O)c1)c1ccc(C(F)(F)F)cc1Oc1ccc(Cl)cc1 [Compound 78, 2-(4-chlorophenoxy)-N-(2-oxo-1,2-dihydropyridin-4-yl)-4-(trifluoromethyl)benzamide]
- IC50: 31 nM

Compound: COc1cccc(F)c1Oc1ccc(C(F)(F)F)cc1C(=O)Nc1cc[nH]c(=O)c1 [Compound 48, 2-(2-fluoro-6-methoxyphenoxy)-N-(2-oxo-1,2-dihydropyridin-4-yl)-5-(trifluoromethyl)benzamide]
- IC50: 2700 nM

Compound: O=C(Nc1cc[nH]c(=O)c1)c1cc(F)ccc1Oc1ccccc1 [Compound 95, 5-fluoro-N-(2-oxo-1,2-dihydropyridin-4-yl)-2-phenoxybenzamide]
- IC50: 3450 nM

Compound: COc1cc(F)ccc1Oc1cc(C(F)(F)F)ccc1C(=O)Nc1cc[nH]c(=O)c1 [Compound 158, 2-(4-fluoro-2-methoxyphenoxy)-N-(2-oxo-1,2-dihydropyridin-4-yl)-4-(trifluoromethyl)benzamide]
- IC50: 2 nM

Compound: O=C(Nc1ccc(=O)[nH]c1)c1ccc(C(F)(F)F)cc1Oc1ccc(F)cc1 [Compound 6, 2-(4-fluorophenoxy)-N-(6-oxo-1,6-dihydropyridin-3-yl)-4-(trifluoromethyl)benzamide]
- IC50: 245 nM

Compound: O=C(Nc1cc[nH]c(=O)c1)c1ccc(C(F)(F)F)cc1Oc1ccc(F)cc1Cl [Compound 77, 2-(2-chloro-4-fluorophenoxy)-N-(2-oxo-1,2-dihydropyridin-4-yl)-4-(trifluoromethyl)benzamide]
- IC50: 29 nM

Compound: CCCOc1ccc(Oc2ccc(C(F)(F)F)cc2C(=O)Nc2cc[nH]c(=O)c2)cc1 [Compound 53, N-(2-oxo-1,2-dihydropyridin-4-yl)-2-(4-propoxyphenoxy)-5-(trifluoromethyl)benzamide]
- IC50: 47 nM

Compound: Cc1ccc(Oc2ccc(C(F)(F)F)cc2C(=O)Nc2cc[nH]c(=O)c2)c(F)c1F [Compound 92, 2-(2,3-difluoro-4-methylphenoxy)-N-(2-oxo-1,2-dihydropyridin-4-yl)-5-(trifluoromethyl)benzamide]
- IC50: 135 nM

Compound: CCCOc1ccc(Oc2ccc(F)cc2C(=O)Nc2cc[nH]c(=O)c2)cc1 [Compound 100, 5-fluoro-N-(2-oxo-1,2-dihydropyridin-4-yl)-2-(4-propoxyphenoxy)benzamide]
- IC50: 155 nM

Compound: O=C(Nc1cc[nH]c(=O)c1)c1cc(F)ccc1Oc1ccc(OCC2CC2)cc1 [Compound 108, 2-(4-(cyclopropylmethoxy)phenoxy)-5-fluoro-N-(2-oxo-1,2-dihydropyridin-4-yl)benzamide]
- IC50: 285 nM

Compound: CC1(C)CC1COc1cc(C(F)(F)F)ccc1C(=O)Nc1cc[nH]c(=O)c1 (stereo not drawn) [Compound 124, 2-((2,2-dimethylcyclopropyl)methoxy)-N-(2-oxo-1,2-dihydropyridin-4-yl)-4-(trifluoromethyl)benzamide]
- IC50: 485 nM

Compound: CC1(C)CC1COc1ccc(OC(F)(F)F)cc1C(=O)Nc1cc[nH]c(=O)c1 (stereo not drawn) [Compound 140, 2-((2,2-dimethylcyclopropyl)methoxy)-N-(2-oxo-1,2-dihydropyridin-4-yl)-5-(trifluoromethoxy)benzamide]
- IC50: 15000 nM

Compound: O=C(Nc1cc[nH]c(=O)c1)c1ccc(C(F)(F)F)cc1Oc1ccccc1OC(F)F [Compound 83, 2-(2-(difluoromethoxy)phenoxy)-N-(2-oxo-1,2-dihydropyridin-4-yl)-4-(trifluoromethyl)benzamide]
- IC50: 46 nM

Compound: O=C(Nc1cc[nH]c(=O)c1)c1ccc(C(F)(F)F)cc1O[C@@H]1C[C@H]2CCC1C2 [Compound 118, 2-((2R)-bicyclo[2.2.1]heptan-2-yloxy)-N-(2-oxo-1,2-dihydropyridin-4-yl)-4-(trifluoromethyl)benzamide]
- IC50: 765 nM

Compound: COc1ccc(Oc2ccc(Cl)cc2C(=O)Nc2cc[nH]c(=O)c2)cc1F [Compound 71, 5-chloro-2-(3-fluoro-4-methoxyphenoxy)-N-(2-oxo-1,2-dihydropyridin-4-yl)benzamide]
- IC50: 92 nM

Compound: O=C(Nc1cc[nH]c(=O)c1)c1ccc(C(F)(F)F)cc1OCC1CC1(F)F (stereo not drawn) [Compound 126, 2-((2,2-difluorocyclopropyl)methoxy)-N-(2-oxo-1,2-dihydropyridin-4-yl)-4-(trifluoromethyl)benzamide]
- IC50: 1400 nM

Compound: COCCc1ccc(Oc2ccc(F)cc2C(=O)Nc2cc[nH]c(=O)c2)cc1 [Compound 102, 5-fluoro-2-(4-(2-methoxyethyl)phenoxy)-N-(2-oxo-1,2-dihydropyridin-4-yl)benzamide]
- IC50: 17100 nM

Compound: COc1c(F)cccc1Oc1ccc(C(F)(F)F)cc1C(=O)Nc1cc[nH]c(=O)c1 [Compound 54, 2-(3-fluoro-2-methoxyphenoxy)-N-(2-oxo-1,2-dihydropyridin-4-yl)-5-(trifluoromethyl)benzamide]
- IC50: 30 nM

Compound: Cc1ccc(F)cc1Oc1ccc(C(F)(F)F)cc1C(=O)Nc1cc[nH]c(=O)c1 [Compound 56, 2-(5-fluoro-2-methylphenoxy)-N-(2-oxo-1,2-dihydropyridin-4-yl)-5-(trifluoromethyl)benzamide]
- IC50: 69 nM

Compound: CC(C)COc1ccc(C(F)(F)F)cc1C(=O)Nc1cc[nH]c(=O)c1 [Compound 131, 2-isobutoxy-N-(2-oxo-1,2-dihydropyridin-4-yl)-5-(trifluoromethyl)benzamide]
- IC50: 1500 nM

Compound: O=C(Nc1cc[nH]c(=O)c1)c1ccc(Cl)cc1Oc1ccc(F)cc1F [Compound 13, 4-chloro-2-(2,4-difluorophenoxy)-N-(2-oxo-1,2-dihydropyridin-4-yl)benzamide]
- IC50: 106 nM

Compound: Cc1ccccc1Oc1cc(C(F)(F)F)ccc1C(=O)Nc1cc[nH]c(=O)c1 [Compound 11, N-(2-oxo-1,2-dihydropyridin-4-yl)-2-(o-tolyloxy)-4-(trifluoromethyl)benzamide]
- IC50: 56 nM

Compound: 2-(4-fluorophenoxy)-N-(1-(2-hydroxyethyl)-2-oxo-1,2-dihydropyridin-4-yl)-4-(trifluoromethyl)benzamide [Compound 85]
- IC50: 2800 nM

Compound: CC(C)COc1cc(C(F)(F)F)ccc1C(=O)Nc1cc[nH]c(=O)c1 [Compound 117, 2-isobutoxy-N-(2-oxo-1,2-dihydropyridin-4-yl)-4-(trifluoromethyl)benzamide]
- IC50: 1140 nM

Compound: O=C(Nc1cc[nH]c(=O)c1)c1cc(C(F)(F)F)ccc1Oc1ccc(F)cc1F [Compound 24, 2-(2,4-difluorophenoxy)-N-(2-oxo-1,2-dihydropyridin-4-yl)-5-(trifluoromethyl)benzamide]
- IC50: 58 nM

Compound: O=C(Nc1cc[nH]c(=O)c1)c1cc(C(F)(F)F)ccc1OCCCC(F)(F)F [Compound 133, N-(2-oxo-1,2-dihydropyridin-4-yl)-2-(4,4,4-trifluorobutoxy)-5-(trifluoromethyl)benzamide]
- IC50: 5800 nM
